In patent publication US6337346B1 (University of North Carolina at Chapel Hill, priority 1998, dated 2002):
In brackets after ≈: the same amount, converted by molar mass. Read-outs that look alike come from different tables or passages of the source.

Assays:
[1] = test system: KB cells; conditions: cited from earlier work; for ED50: KB cells, background, numbering of Examples 1-13
[2] = test system: LOX IMVI; assay: NCI in vitro disease-oriented tumor cells screen; assay type: cell-based, human; conditions: Melanoma LOX IMVI, Table 2 (numbering of Examples 1-13), average of at least two testings; for GI50: Homo sapiens, read-out: Cytotoxicity log GI50 (converted)
Text: (§1) (Activity is defined as log GI50<−4 where GI50 is the molar concentration causing 50% cell growth inhibition).

[3] = test system: MALME-3M; assay: NCI in vitro disease-oriented tumor cells screen; assay type: cell-based, human; conditions: Melanoma MALME-3M, Table 2, average of at least two testings; for GI50: Homo sapiens, read-out: Cytotoxicity log GI50 (converted)
Text: as §1

[4] = test system: M14; assay: NCI in vitro disease-oriented tumor cells screen; assay type: cell-based, human; conditions: Melanoma M14, Table 2, average of at least two testings; for GI50: Homo sapiens, read-out: Cytotoxicity log GI50 (converted)
Text: as §1

[5] = test system: SK-MEL-2; assay: NCI in vitro disease-oriented tumor cells screen; assay type: cell-based, human; conditions: Melanoma SK-MEL-2, Table 2, average of at least two testings; for GI50: Homo sapiens, read-out: Cytotoxicity log GI50 (converted)
Text: as §1

[6] = test system: SK-MEL-28; assay: NCI in vitro disease-oriented tumor cells screen; assay type: cell-based, human; conditions: Melanoma SK-MEL-28, Table 2, average of at least two testings; for GI50: Homo sapiens, read-out: Cytotoxicity log GI50 (converted)
Text: as §1

[7] = test system: SK-MEL-5; assay: NCI in vitro disease-oriented tumor cells screen; assay type: cell-based, human; conditions: Melanoma SK-MEL-5, Table 2 (numbering of Examples 1-13), average of at least two testings; for GI50: Homo sapiens, read-out: Cytotoxicity log GI50 (converted)
Text: as §1

[8] = test system: UACC-257; assay: NCI in vitro disease-oriented tumor cells screen; assay type: cell-based, human; conditions: Melanoma UACC-257, Table 2, average of at least two testings; for GI50: Homo sapiens, read-out: Cytotoxicity log GI50 (converted)
Text: as §1

[9] = test system: UACC-62; assay: NCI in vitro disease-oriented tumor cells screen; assay type: cell-based, human; conditions: Melanoma UACC-62, Table 2, average of at least two testings; for GI50: Homo sapiens, read-out: Cytotoxicity log GI50 (converted)
Text: as §1

[10] = test system: HL-60(TB); assay: NCI in vitro disease-oriented tumor cells screen; assay type: cell-based, human; conditions: Leukemia HL-60(TB), Table 2, average of at least two testings; for GI50: Homo sapiens, read-out: Cytotoxicity log GI50 (converted)
Text: as §1

[11] = test system: NCI-H23; assay: NCI in vitro disease-oriented tumor cells screen; assay type: cell-based, human; conditions: Non-Small Cell Lung Cancer NCI-H23, Table 2 (numbering of Examples 1-13), average of at least two testings; for GI50: Homo sapiens, read-out: Cytotoxicity log GI50 (converted)
Text: as §1

[12] = test system: NCI-H522; assay: NCI in vitro disease-oriented tumor cells screen; assay type: cell-based, human; conditions: Non-Small Cell Lung Cancer NCI-H522, Table 2, average of at least two testings; for GI50: Homo sapiens, read-out: Cytotoxicity log GI50 (converted)
Text: as §1

[13] = test system: OVCAR-3; assay: NCI in vitro disease-oriented tumor cells screen; assay type: cell-based, human; conditions: Ovarian Cancer OVCAR-3, Table 2 (numbering of Examples 1-13), average of at least two testings; for GI50: Homo sapiens, read-out: Cytotoxicity log GI50 (converted)
Text: as §1

[14] = test system: OVCAR-8; assay: NCI in vitro disease-oriented tumor cells screen; assay type: cell-based, human; conditions: Ovarian Cancer OVCAR-8, Table 2, average of at least two testings; for GI50: Homo sapiens, read-out: Cytotoxicity log GI50 (converted)
Text: as §1

[15] = test system: HS 578T; assay: NCI in vitro disease-oriented tumor cells screen; assay type: cell-based, human; conditions: Breast Cancer HS 578T, Table 2, average of at least two testings; for GI50: Homo sapiens, read-out: Cytotoxicity log GI50 (converted)
Text: as §1

[16] = test system: MDA-MB-435; assay: NCI in vitro disease-oriented tumor cells screen; assay type: cell-based, human; conditions: Breast Cancer MDA-MB-435, Table 2 (numbering of Examples 1-13), average of at least two testings; for GI50: Homo sapiens, read-out: Cytotoxicity log GI50 (converted)
Text: as §1

[17] = test system: MDA-N; assay: NCI in vitro disease-oriented tumor cells screen; assay type: cell-based, human; conditions: Breast Cancer MDA-N, Table 2 (numbering of Examples 1-13), average of at least two testings; for GI50: Homo sapiens, read-out: Cytotoxicity log GI50 (converted)
Text: as §1

[18] = test system: BT-549; assay: NCI in vitro disease-oriented tumor cells screen; assay type: cell-based, human; conditions: Breast Cancer BT-549, Table 2, average of at least two testings; for GI50: Homo sapiens, read-out: Cytotoxicity log GI50 (converted)
Text: as §1

[19] = test system: human tumor cell lines
Text: as §1

[20] = test system: human tumor cell lines; assay: NCI in vitro screen, mean over all cell lines tested; conditions: for GI50: Homo sapiens, read-out: Cytotoxicity log GI50, Mean Value (converted); for Cytotoxicity log GI50, Mean Value: Mean value over all cell lines tested (58 human tumor cell lines), Table 2 (numbering of Examples 1-13)
Text: as §1

| SMILES | GI50 [2] [µM] | GI50 [3] [µM] | GI50 [4] [µM] | GI50 [5] [µM] | GI50 [6] [µM] | GI50 [7] [µM] | GI50 [8] [µM] | GI50 [9] [µM] | GI50 [10] [µM] | GI50 [11] [µM] | GI50 [12] [µM] | GI50 [13] [µM] | GI50 [14] [µM] | GI50 [15] [µM] | GI50 [16] [µM] | GI50 [17] [µM] | GI50 [18] [µM] | GI50 [20] [µM] | overall cytotoxicity / potency (in words) [19] | further results |
| --- | --- | --- | --- | --- | --- | --- | --- | --- | --- | --- | --- | --- | --- | --- | --- | --- | --- | --- | --- | --- |
| O=C1c2c(O)ccc(O)c2C(=O)c2c(NCCNCCO)ccc(NCCNCCO)c21 [Compound 1, mitoxantrone] | – | – | – | – | – | – | – | – | – | – | – | – | – | – | – | – | – | – | – | ED50 [1]: 1.0 µg/mL (≈ 2.25 µM) |
| CC(=O)c1cc2c(o1)C(=O)c1ccccc1C2=O [Compound 2, 2-acetyl-4H, 9H-naphtho[2,3-b]furan-4,9-dione] | – | – | – | – | – | – | – | – | – | – | – | – | – | – | – | – | – | – | – | EC50 ([1]; KB cell culture assay, numbering of Examples 14-16, read-out: ED50 (the source's name)): 4.2 µM; ED50 [1]: 2.0 µg/mL (≈ 8.33 µM) |
| O=C1c2ccccc2C(=O)c2sccc21 [Compound 4, naphtho[2,3-b]thiophene-4,9-dione] | – | – | – | – | – | – | – | – | – | – | – | – | – | – | – | – | – | – | – | ED50 [1]: 1.4 µg/mL (≈ 6.53 µM) |
| CC(=O)OC(C)c1cc2c(s1)C(=O)c1ccsc1C2=O (stereo not drawn) [Compound 11, 2-(1′-Acetoxyethyl)-4,8-dihydrobenzo[1,2-b:4,5-b′]dithiophene-4,8-dione] | < 0.01 | < 0.01 | 0.0129 | 0.0263 | 0.0191 | 0.0135 | 0.0251 | 0.017 | < 0.01 | 0.0112 | 0.148 | < 0.01 | 0.0363 | 0.155 | < 0.01 | < 0.01 | 0.0457 | 0.0398 | – | Cytotoxicity log GI50, Mean Value ([19]; human): −7.40 M |
| CC(=O)c1cc2c(s1)C(=O)c1c(C(C)=O)csc1C2=O [Compound 13, 2,7-Diacetyl-4,8-dihydrobenzo[1,2-b:4,5-b′]dithiophene-4,8-dione] | 1.05 | 1.32 | 1.51 | 1.74 | 1.78 | 1.2 | 0.562 | 1.95 | 0.0525 | 1.32 | 0.525 | 0.229 | 1.45 | 2.4 | 0.178 | 0.174 | 1.74 | 1.17 | less active in all cell lines | – |
| CC(O)c1cc2c(s1)C(=O)c1c(C(C)O)csc1C2=O (stereo not drawn) [Compound 14, 2,7-Bis(1′-hydroxyethyl)-4,8-dihydrobenzo [1,2-b:4,5-b′]dithiophene-4,8-dione] | 0.055 | 0.0275 | 0.0575 | 0.112 | 0.186 | 0.0126 | 0.0617 | 0.0324 | 0.0112 | 0.0339 | 0.302 | 0.0117 | 0.219 | 0.316 | 0.0178 | 0.0209 | 0.162 | 0.148 | overall cytotoxicity comparable to the monosubstituted compounds | – |
| CC(=O)c1cc2c(s1)C(=O)c1sccc1C2=O [Compound 19, 2-Acetyl-4,8-dihydrobenzo[1,2-b:5,4-b′]dithiophene-4,8-dione] | < 0.01 | 0.0162 | 0.0174 | 0.0331 | < 0.01 | < 0.01 | 0.0138 | 0.017 | – | 0.0182 | 0.0174 | < 0.01 | 0.0309 | 0.0363 | < 0.01 | < 0.01 | 0.0178 | 0.0468 | – | – |
| CC(O)c1cc2c(s1)C(=O)c1sccc1C2=O (stereo not drawn) [Compound 20, 2-(1′-Hydroxyethyl)-4,8-dihydrobenzo[1,2-b:5,4-b′]dithiophene-4,8-dione] | 0.024 | 0.0191 | 0.0148 | 0.0309 | 0.0389 | 0.0135 | 0.0182 | 0.0224 | 0.0692 | 0.0155 | 0.123 | 0.117 | 0.162 | 0.0575 | 0.0162 | 0.0186 | 0.0347 | 0.135 | excellent overall cytotoxicity | melting point: 170 to 172 °C |
| CC(=O)OC(C)c1cc2c(s1)C(=O)c1sccc1C2=O (stereo not drawn) [Compound 21, 2-(1′-Acetoxyethyl)-4,8-dihydrobenzo[1,2-b:5,4-b′]dithiophene-4,8-dione] | 0.209 | 0.12 | 0.162 | 0.417 | 0.646 | 0.107 | 0.214 | 1.38 | 1.74 | 0.219 | 0.871 | 0.49 | 1.41 | 0.513 | 0.182 | 0.0191 | 0.282 | 0.794 | among the least active | melting point: 165 to 166 °C |
| CC(=O)c1cc2c(s1)C(=O)c1sc(C(C)=O)cc1C2=O [Compound 23] | – | – | – | – | – | – | – | – | – | – | – | – | – | – | – | – | – | – | – | Cytotoxicity log GI50 [2]: −7.65 M; Cytotoxicity log GI50 [3]: −6.65 M; Cytotoxicity log GI50 [4]: −6.36 M; Cytotoxicity log GI50 [5]: −6.79 M; Cytotoxicity log GI50 [6]: −6.69 M; Cytotoxicity log GI50 [7]: −6.50 M; Cytotoxicity log GI50 [8]: −6.78 M; Cytotoxicity log GI50 [9]: −6.63 M; Cytotoxicity log GI50 [11]: −6.54 M; Cytotoxicity log GI50 [12]: −6.42 M; Cytotoxicity log GI50 [13]: −7.53 M; Cytotoxicity log GI50 [14]: −6.64 M; Cytotoxicity log GI50 [15]: −6.55 M; Cytotoxicity log GI50 [16]: −6.64 M; Cytotoxicity log GI50 [17]: −6.71 M; Cytotoxicity log GI50 [18]: −6.04 M; Cytotoxicity log GI50, Mean Value [20]: −6.47 M |
| CC(O)c1cc2c(s1)C(=O)c1sc(C(C)O)cc1C2=O (stereo not drawn) [Compound 24] | – | – | – | – | – | – | – | – | – | – | – | – | – | – | – | – | – | – | – | Cytotoxicity log GI50 [2]: −6.92 M; Cytotoxicity log GI50 [3]: −6.82 M; Cytotoxicity log GI50 [4]: −6.81 M; Cytotoxicity log GI50 [5]: −6.69 M; Cytotoxicity log GI50 [6]: −6.63 M; Cytotoxicity log GI50 [7]: −6.85 M; Cytotoxicity log GI50 [8]: −6.79 M; Cytotoxicity log GI50 [9]: −6.61 M; Cytotoxicity log GI50 [10]: −6.36 M; Cytotoxicity log GI50 [11]: −6.72 M; Cytotoxicity log GI50 [12]: −6.40 M; Cytotoxicity log GI50 [13]: −6.44 M; Cytotoxicity log GI50 [14]: −6.58 M; Cytotoxicity log GI50 [15]: −6.50 M; Cytotoxicity log GI50 [16]: −6.80 M; Cytotoxicity log GI50 [17]: −6.83 M; Cytotoxicity log GI50 [18]: −6.71 M; Cytotoxicity log GI50, Mean Value [20]: −6.32 M |
